The values below are quoted from earlier work in US20200031811A1, “SUBSTITUTED MONO- AND POLYAZANAPHTHALENE DERIVATIVES AND THEIR USE” (Basilea Pharmaceutica International AG, priority 2015, published 2020).

Series [1] has as its system HCT116 colon carcinoma xenograft. As to conditions: nude mice; cited from earlier work.
For series [2], the system named is B16 melanoma pulmonary metastatic lesions. The note with it: in vivo; cited from earlier work.

Take `CC(=O)C1=C(O)C=C2Oc3c(C(N)=O)c(O)cc(O)c3[C@]2(C)C1=O` [cercosporamidc]: in series [1], the “growth of a HCT116 colon carcinoma xenograft model” value is listed as “inhibiting the growth”. In addition, the “outgrowth of B16 melanoma pulmonary metastatic lesions” value in series [2] is “reduceing the outgrowth”.
